Experiments:
Mysidopsis bahia = assay: 48 hour acute static renewal toxicity bioassay, Mysidopsis bahia (E.P.A./600/4-85/013); type: in vivo; conditions: EPA Probit Analysis
Experimental: (§1) A nutrient mixture and coating were prepared as described in example 1. The toxicity of the product as expressed by reduced survival of organisms exposed to various dilutions of the product was determined through a 48 hour acute static renewal bioassay using Mysidopsis bahia and Cyprinodon variegatus. E.P.A./600/4-85/013 test protocol was followed. All organisms were maintained at room temperature with a light/dark cycle of 16/8. Dilution water was made from Tropic Marine Synthetic Sea Salt and was aerated for 24 hours before use in the test. The test was performed in 600 ml polypropylene diSPo beakers rinsed in the dilution water. Ten organisms of Mysidopsis bahia were placed in 200 ml of dilution water making a 5 cm depth. Ten organisms of Cyprinodon variegatus were placed in 500 ml of dilution water making a 9.5 cm depth.
(§2) Dissolved oxygen, pH, conductivity and salinity, alkalinity and hardness were measured before water renewal. CdCl supplied by the E.P.A. was used as the reference toxicant for both of the Mysidopsis and Cyprinodon organisms. Both the Mysidopsis and the Cyprinodons used in this test were obtained from Aquatox, Inc., and were approximately 27 days old at the time of testing. Both batches of organisms were acclimated to the proper salinity, by adding 300 ml of synthetic, fresh water, every hour until test initiation. […]

Cyprinodon variegatus = assay: 48 hour acute static renewal toxicity bioassay, Cyprinodon variegatus (E.P.A./600/4-85/013); type: in vivo; conditions: EPA Probit Analysis
Experimental: as §1, §2

[Cl][Cd][Cl] [CdCl]
EC50 (reduced survival), reference toxicant (Mysidopsis bahia): 0.1185 µg/mL
EC50 (reduced survival), reference toxicant (Cyprinodon variegatus): 7.8237 µg/mL

— patent publication US5725885A, “Composition for enhanced bioremediation of oil” (BioNutraTech, priority 1995, dated 1998)
